We go through 17 compounds from patent publication US20250257051A1, “SUBSTITUTED PYRIMIDINE COMPOUNDS AS TYK2 INHIBITORS” (1910 Genetics Inc., priority 2022, published 2025).

In general, Kd refers to the constant that tells how readily two partners part at equilibrium.

Where a name gives a salt, the structure may show the parent alone.

Chain of human TYK2 (JH2domain-pseudokinase) (P29597 556-888): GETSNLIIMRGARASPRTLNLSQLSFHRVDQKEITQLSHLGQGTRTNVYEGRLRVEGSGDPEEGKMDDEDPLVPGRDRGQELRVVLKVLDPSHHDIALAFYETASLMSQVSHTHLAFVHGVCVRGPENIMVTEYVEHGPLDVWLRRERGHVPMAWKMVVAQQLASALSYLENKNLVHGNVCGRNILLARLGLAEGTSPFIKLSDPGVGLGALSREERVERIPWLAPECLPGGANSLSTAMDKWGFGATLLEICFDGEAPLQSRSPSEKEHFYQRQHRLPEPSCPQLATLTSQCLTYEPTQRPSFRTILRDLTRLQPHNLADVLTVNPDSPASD

In one experiment the target is human TYK2 (JH2domain-pseudokinase) (Homo sapiens (Human), UniProt P29597). Description: TYK2 JH2 Domain Binding Assay (KINOMEscan competition binding). The settings on record: KINOMEscan; 11-point 3-fold dilution, top concentration 30,000 nM; Kd measurements in duplicate; read-out: TYK JH2 (Kd). The procedure, abridged:
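Competition binding of HEK293-expressed, DNA-tagged TYK2 JH2 (G556–D888)-NFkB fusion in crude extract against immobilized ligand, 1 h at room temperature, 0.9% DMSO. Bead-bound kinase quantified by qPCR; Kd from 11-point 3-fold series (top 30,000 nM), duplicate, Hill fit with slope −1.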
In the case of `CNC(=O)[C@@H]1CCN(c2ncc(C(N)=O)c(Nc3ccc(C4CC4)nc3)n2)C1` [Compound 4, (R)-4-((6-cyclopropylpyridin-3-yl)amino)-2-(3-(methylcarbamoyl)pyrrolidin-1-yl)pyrimidine-5-carboxamide], the Kd was found to be 0.038 µM. Still for that read-out and setting: then `CNC(=O)c1cnc(N2CCC(C(=O)NC)C2)nc1Nc1ccc(C2CC2)nc1` (centres unmarked) [Compound 1, 4-((6-cyclopropylpyridin-3-yl)amino)-N-methyl-2-(3-(methylcarbamoyl)pyrrolidin-1-yl)pyrimidine-5-carboxamide], with 0.17 µM. Same read-out and setting: under `CNC(=O)c1cnc(N2CCC(C(=O)O)CC2)nc1Nc1ccccc1S(C)(=O)=O` [Compound 68, 1-(5-(methylcarbamoyl)-4-((2-(methylsulfonyl)phenyl)amino)pyrimidin-2-yl)piperidine-4-carboxylic Acid] stands 0.16 µM. Same read-out and setting: under `CC1CN(C(=O)OC(C)(C)C)CCN1c1ncc(C(N)=O)c(Nc2ccccc2S(C)(=O)=O)n1` (racemic) [Compound 55, Tert-Butyl 4-(5-carbamoyl-4-((2-(methylsulfonyl)phenyl)amino)pyrimidin-2-yl)-3-methylpiperazine-1-carboxylate] stands 0.18 µM. `CNC(=O)c1cnc(N2CCN(C(=O)OC(C)(C)C)CC2C)nc1Nc1ccccc1OC` (centres unmarked) [Compound 32, Tert-Butyl 4-(4-((2-methoxyphenyl)amino)-5-(methylcarbamoyl)pyrimidin-2-yl)-3-methylpiperazine-1-carboxylate]: the Kd was found to be 17 µM. On the same count and under the same terms, then `CC(=O)N1CCN(c2ncc(C(N)=O)c(Nc3ccccc3S(C)(=O)=O)n2)C(C)C1` (racemic) [Compound 62, 2-(4-acetyl-2-methylpiperazin-1-yl)-4-((2-(methylsulfonyl)phenyl)amino)pyrimidine-5-carboxamide], with 0.12 µM. On the same count and under the same terms, then `CNC(=O)c1cnc(N2CCCN(C(=O)OC(C)(C)C)CC2)nc1Nc1ccccc1S(C)(=O)=O` [Compound 66, Tert-Butyl 4-(S-(methylcarbamoyl)-4-((2-(methylsulfonyl)phenyl)amino)pyrimidin-2-yl)-1,4-diazepane-1-carboxylate], with 6.3 µM; and `CC(C)(C)OC(=O)N1CCCN(c2ncc(C(N)=O)c(Nc3ccc(C4CC4)nc3)n2)CC1` [Compound 47, Tert-Butyl 4-(S-carbamoyl-4-((6-cyclopropylpyridin-3-yl)amino)pyrimidin-2-yl)-1,4-diazepane-1-carboxylate], with 6.7 µM; and `COc1c(Nc2nc(N3CCCNCC3)ncc2C(N)=O)cccc1-c1ncc(F)cn1` [Compound 73, 2-(1,4-diazepan-1-yl)-4-((3-(5-fluoropyrimidin-2-yl)-2-methoxyphenyl)amino)pyrimidine-5-carboxamide Hydrochloride], with 0.15 µM.

For the compound `CS(=O)(=O)c1ccccc1Nc1nc(N2CCCNCC2)ncc1C(N)=O` [Compound 79, 2-(1,4-diazepan-1-yl)-4-((2-(methylsulfonyl)phenyl)amino)pyrimidine-5-carboxamide hydrochloride], the Kd came out at 1.7 µM.

As to `CNC(=O)c1cnc(N2CC[C@H](C(=O)NC)C2)nc1Nc1cccc(-c2ncc(F)cn2)c1OC` [Compound 7, (S)-4-((3-(5-fluoropyrimidin-2-yl)-2-methoxyphenyl)amino)-N-methyl-2-(3-(methylcarbamoyl)pyrrolidin-1-yl)pyrimidine-5-carboxamide], the dissociation constant (Kd) was found to be 0.0039 µM. Turning to `CCOC(=O)C1CCN(c2ncc(C(N)=O)c(Nc3ccccc3S(C)(=O)=O)n2)CC1` [Compound 16, Ethyl 1-(5-carbamoyl-4-((2-(methylsulfonyl)phenyl)amino)pyrimidin-2-yl)piperidine-4-carboxylate], the Kd stood at 0.0026 µM.

Consider `CS(=O)(=O)c1ccccc1Nc1nc(N2CCC(C(=O)O)CC2)ncc1C(N)=O` [Compound 78, 1-(5-carbamoyl-4-((2-(methylsulfonyl)phenyl)amino)pyrimidin-2-yl)piperidine-4-carboxylic Acid], for which the Kd was 0.33 µM. The same measure, in the same setting: under `COc1ccccc1Nc1nc(N2CCNCC2C)ncc1C(N)=O` (centres unmarked) [Compound 42, 4-((2-methoxyphenyl)amino)-2-(2-methylpiperazin-1-yl)pyrimidine-5-carboxamide hydrochloride] stands 3.3 µM. The same measure, in the same setting: under `CNC(=O)c1cnc(N2CC[C@H](C(=O)NC)C2)nc1Nc1ccc(C2CC2)nc1` [Compound 6, (S)-4-((6-cyclopropylpyridin-3-yl)amino)-N-methyl-2-(3-(methylcarbamoyl)pyrrolidin-1-yl)pyrimidine-5-carboxamide] stands 0.43 µM.

The experiment is the same for the next values; noted with them: Table 4: pyrimidinyl compound of Formula I versus compounds with a different heteroaryl core; read-out: TYK JH2 (Kd).
`CNC(=O)c1cnc(N2CCC(C(=O)NC)C2)cc1Nc1ccc(C2CC2)nc1` (centres unmarked) [reference compound]: the Kd came out at 10 µM. Same read-out and setting: under `CNC(=O)c1nnc(N2CCC(C(=O)NC)C2)cc1Nc1ccc(C2CC2)nc1` (centres unmarked) [reference compound] stands 31 µM.
